Some results are limits rather than exact numbers.

In the first experiment the target is human Nav1.7 (Homo sapiens (Human), UniProt Q15858). The experiment can be described thus: FLIPR sodium dye assay with KCl and test article pre-incubation, recombinant Nav1.7/HEK293 cells. It is filed as cell-based. The conditions noted are these: Nav1.7, FLIPR assay.
Sequence of human Nav1.7 (Q15858 other isoform, or with tags, fused parts or gaps): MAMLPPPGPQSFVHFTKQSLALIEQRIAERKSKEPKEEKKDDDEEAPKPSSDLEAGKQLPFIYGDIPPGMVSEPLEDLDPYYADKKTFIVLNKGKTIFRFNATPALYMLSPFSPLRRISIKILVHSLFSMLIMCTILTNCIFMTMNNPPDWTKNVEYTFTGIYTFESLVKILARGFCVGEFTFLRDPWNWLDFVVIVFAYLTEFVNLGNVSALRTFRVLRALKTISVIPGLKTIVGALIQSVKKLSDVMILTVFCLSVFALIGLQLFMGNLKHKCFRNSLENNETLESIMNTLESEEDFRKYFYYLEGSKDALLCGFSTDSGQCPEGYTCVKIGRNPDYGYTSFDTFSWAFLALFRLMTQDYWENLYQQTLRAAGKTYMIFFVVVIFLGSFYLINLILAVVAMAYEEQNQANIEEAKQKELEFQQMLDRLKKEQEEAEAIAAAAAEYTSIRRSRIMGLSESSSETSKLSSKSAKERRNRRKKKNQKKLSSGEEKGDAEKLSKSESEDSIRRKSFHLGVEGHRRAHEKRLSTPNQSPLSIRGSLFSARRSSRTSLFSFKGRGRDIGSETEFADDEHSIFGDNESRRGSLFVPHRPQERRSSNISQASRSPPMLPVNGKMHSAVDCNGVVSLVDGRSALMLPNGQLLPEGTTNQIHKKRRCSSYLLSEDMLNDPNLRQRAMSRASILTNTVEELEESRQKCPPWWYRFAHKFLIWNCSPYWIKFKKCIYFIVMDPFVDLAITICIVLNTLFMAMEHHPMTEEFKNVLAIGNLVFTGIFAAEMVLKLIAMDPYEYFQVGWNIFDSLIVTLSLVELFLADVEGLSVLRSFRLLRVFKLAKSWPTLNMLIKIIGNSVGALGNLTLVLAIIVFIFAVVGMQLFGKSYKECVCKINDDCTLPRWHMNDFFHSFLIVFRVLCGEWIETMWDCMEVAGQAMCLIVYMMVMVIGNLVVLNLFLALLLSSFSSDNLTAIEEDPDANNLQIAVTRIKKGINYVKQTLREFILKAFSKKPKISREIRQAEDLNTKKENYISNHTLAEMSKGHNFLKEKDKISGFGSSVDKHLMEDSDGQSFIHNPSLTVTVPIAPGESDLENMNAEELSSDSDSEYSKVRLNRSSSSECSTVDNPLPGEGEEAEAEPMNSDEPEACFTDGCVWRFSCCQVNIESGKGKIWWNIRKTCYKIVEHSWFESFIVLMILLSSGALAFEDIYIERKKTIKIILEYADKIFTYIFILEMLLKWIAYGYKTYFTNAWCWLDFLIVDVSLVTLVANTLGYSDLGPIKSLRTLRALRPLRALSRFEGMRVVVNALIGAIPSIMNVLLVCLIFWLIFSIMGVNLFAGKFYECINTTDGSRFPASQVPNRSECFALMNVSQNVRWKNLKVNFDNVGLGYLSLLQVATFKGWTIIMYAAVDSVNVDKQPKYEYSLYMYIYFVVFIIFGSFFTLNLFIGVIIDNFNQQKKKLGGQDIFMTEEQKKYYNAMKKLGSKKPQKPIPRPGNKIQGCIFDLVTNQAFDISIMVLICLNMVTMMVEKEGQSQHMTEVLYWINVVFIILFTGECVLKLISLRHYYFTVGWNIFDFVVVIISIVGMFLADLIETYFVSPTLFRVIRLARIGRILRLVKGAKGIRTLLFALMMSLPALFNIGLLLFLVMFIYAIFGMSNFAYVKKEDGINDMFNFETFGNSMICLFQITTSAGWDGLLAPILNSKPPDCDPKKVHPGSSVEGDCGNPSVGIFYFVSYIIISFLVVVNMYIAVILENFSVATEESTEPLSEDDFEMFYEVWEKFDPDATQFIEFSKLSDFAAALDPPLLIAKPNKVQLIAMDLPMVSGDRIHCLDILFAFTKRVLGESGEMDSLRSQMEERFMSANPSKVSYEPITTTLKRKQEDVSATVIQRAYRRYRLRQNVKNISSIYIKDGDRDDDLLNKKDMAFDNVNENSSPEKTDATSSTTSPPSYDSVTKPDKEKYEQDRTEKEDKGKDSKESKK
A word on the IC50: it is the point on the concentration scale where inhibition reaches its midpoint. Regarding `O=C(c1ccc(OCC(F)(F)F)nc1)N1CCCC(c2ccccc2-c2ccc(O)nc2)C1` (stereo not drawn) [Compound 19, (3-(2-(6-hydroxypyridin-3-yl)phenyl)piperidin-1-yl)(6-(2,2,2-trifluoroethoxy)pyridin-3-yl)methanone], the IC50 is 5470 ± 220 nM.
Still for that read-out and setting: the value for `CSc1ncc(-c2ccccc2C2CCCN(C(=O)c3ccc(OCC(F)(F)F)nc3)C2)cn1` (stereo not drawn) [Compound 16, (3-(2-(2-(methylthio)pyrimidin-5-yl)phenyl)piperidin-1-yl)(6-(2,2,2-trifluoroethoxy)pyridin-3-yl)methanone] was 676 ± 39 nM.
On the same count and under the same terms, the value for `O=C(c1ccc(OCC(F)(F)F)nc1)N1CCCC(c2ccccc2)C1` (stereo not drawn) [Compound 10, (3-phenylpiperidin-1-yl)(6-(2,2,2-trifluoroethoxy)pyridin-3-yl)methanone] was 1600 ± 105 nM; that for `COc1ncccc1-c1ccccc1C1CCCN(C(=O)c2ccc(OCC(F)(F)F)nc2)C1` (stereo not drawn) [Compound 17, (3-(2-(2-methoxypyridin-3-yl)phenyl)piperidin-1-yl)(6-(2,2,2-trifluoroethoxy)pyridin-3-yl)methanone] was 691 ± 60 nM.
With `CN(C)c1ncc(-c2ccccc2C2CCCN(C(=S)Nc3ccc(C(F)(F)F)cc3)C2)cn1` (stereo not drawn) [Compound 29, 3-(2-(2-(dimethylamino)pyrimidin-5-yl)phenyl)-N-(4-(trifluoromethyl)phenyl)piperidine-1-carbothioamide], the IC50 was over 20000 nM.
Consider `COc1ccc(C(=O)N2CCCC(c3ccccc3-c3cnc(N(C)C)nc3)C2)cc1` (stereo not drawn) [Compound 36, (3-(2-(2-(dimethylamino)pyrimidin-5-yl)phenyl)piperidin-1-yl)(4-methoxyphenyl)methanone], for which the IC50 is 384 ± 80 nM.
`COc1ccc(C(=O)N2CCCC(c3ccccc3-c3cnc(N(C)C)nc3)C2)cc1[C@@H](O)CO` (stereo partly drawn) [Compound 34, (3-((R)-1,2-dihydroxyethyl)-4-methoxyphenyl)(3-(2-(2-(dimethylamino)pyrimidin-5-yl)phenyl)piperidin-1-yl)methanone]: the IC50 was over 20000 nM.
Turning to `COc1ncc(-c2ccccc2C2CCCN(C(=O)c3ccc(OCC(F)(F)F)cc3)C2)cn1` (stereo not drawn) [Compound 6, (3-(2-(2-methoxypyrimidin-5-yl)phenyl)piperidin-1-yl)(4-(2,2,2-trifluoroethoxy)phenyl) methanone], the IC50 is 209 ± 16 nM.
In the case of `COc1ccc(C(=O)N2CCCC(c3ccccc3-c3cnc(N(C)C)nc3)C2)cc1[C@H](O)CO` (stereo partly drawn) [Compound 35, (3-((S)-1,2-dihydroxyethyl)-4-methoxyphenyl)(3-(2-(2-(dimethylamino)pyrimidin-5-yl)phenyl)piperidin-1-yl)methanone], the IC50 was in the range of 10000 to 20000 nM.
Turning to `CN(C)c1ncc(-c2ccccc2C2CCCN(C(=O)c3ccc(OCC(F)(F)F)cc3)C2)cn1` (stereo not drawn) [Compound 40, (3-(2-(2-(dimethylamino)pyrimidin-5-yl)phenyl)piperidin-1-yl)(4-(2,2,2-trifluoroethoxy)phenyl)methanone], the IC50 turned out to be 96 ± 6 nM.
`CN(C)c1ncc(-c2ccccc2C2CCCN(C(=O)Nc3ccc(OC(F)(F)F)cc3)C2)cn1` (stereo not drawn) [Compound 31, 3-(2-(2-(dimethylamino)pyrimidin-5-yl)phenyl)-N-(4-(trifluoromethoxy)phenyl)piperidine-1-carboxamide]: the IC50 worked out at 941 ± 132 nM.
Same read-out and setting: the value for `CN(C)c1ncc(-c2ccccc2C2CCCN(C(=O)c3ccc(C(N)=O)cc3)C2)cn1` (stereo not drawn) [Compound 38, 4-(3-(2-(2-(dimethylamino)-pyrimidin-5-yl)phenyl)piperidine-1-carbonyl) benzamide] was over 20000 nM; that for `CN(C)c1ncc(-c2ccccc2C2CCCN(C(=O)c3ccc(OCC(F)(F)F)nc3)C2)cn1` (stereo not drawn) [Compound 18, (3-(2-(2-(dimethylamino)pyrimidin-5-yl)phenyl)piperidin-1-yl)(6-(2,2,2-trifluoroethoxy)pyridin-3-yl)methanone] was 558 ± 31 nM; that for `COc1ccc(NC(=S)N2CCCC(c3ccccc3-c3cnc(N(C)C)nc3)C2)cc1` (stereo not drawn) [Compound 30, 3-(2-(2-(dimethylamino)pyrimidin-5-yl)phenyl)-N-(4-methoxyphenyl)piperidine-1-carbothioamide] was 2520 ± 753 nM.
As for `CN(C)c1ncc(-c2ccccc2C2CCCN(S(=O)(=O)Nc3ncns3)C2)cn1` (stereo not drawn) [Compound 43, 3-(2-(2-(dimethylamino)pyrimidin-5-yl)phenyl)-N-(1,2,4-thiadiazol-5-yl)piperidine-1-sulfonamide], the IC50 is over 20000 nM.
On to `COc1ncc(-c2ccccc2C2CCCN(C(=O)c3cccnc3N)C2)cn1` (stereo not drawn) [Compound 28, (2-aminopyridin-3-yl)(3-(2-(2-methoxypyrimidin-5-yl)phenyl)piperidin-1-yl)methanone], for which the IC50 turned out to be 2570 ± 574 nM.
Regarding `O=C(c1ccc(OCC(F)(F)F)nc1)N1CCCC(c2ccccc2O)C1` (stereo not drawn) [Compound 7, (3-(2-hydroxyphenyl)piperidin-1-yl)(6-(2,2,2-trifluoroethoxy)pyridin-3-yl)methanone], the IC50 was 2570 ± 62 nM.
In the case of `CN(C)c1ncc(-c2ccccc2C2CCCN(C(=O)c3cccc(C(N)=O)c3)C2)cn1` (stereo not drawn) [Compound 37, 3-(3-(2-(2-(dimethylamino)-pyrimidin-5-yl)phenyl)piperidine-1-carbonyl) benzamide], the IC50 was over 20000 nM.
Regarding `CN(C)c1ncc(-c2ccccc2C2CCCN(C(=O)c3ccc(OC(F)(F)F)cc3)C2)cn1` (stereo not drawn) [Compound 39, (3-(2-(2-(dimethylamino)pyrimidin-5-yl)phenyl)piperidin-1-yl)(4-(tri-fluoromethoxy)phenyl)methanone], the IC50 stood at 689 ± 35 nM.
For `CN(C)c1ncc(-c2ccccc2C2CCCN(S(=O)(=O)c3ccc(OC(F)(F)F)cc3)C2)cn1` (stereo not drawn) [Compound 33, N,N-dimethyl-5-(2-(1-((4-(trifluoromethoxy)phenyl)sulfonyl)piperidin-3-yl)phenyl)pyrimidin-2-amine], the IC50 was 376 ± 29 nM.
Turning to `COc1ncc(-c2ccccc2C2CCCN(C(=O)c3ccc(OCC(F)(F)F)nc3)C2)cn1` (stereo not drawn) [Compound 13, (3-(2-(2-methoxypyrimidin-5-yl)phenyl)piperidin-1-yl)(6-(2,2,2-trifluoroethoxy)pyridin-3-yl)methanone], the IC50 turned out to be 873 ± 27 nM.
Regarding `COc1ccc(S(=O)(=O)N2CCCC(c3ccccc3-c3cnc(N(C)C)nc3)C2)cc1` (stereo not drawn) [Compound 32, 5-(2-(1-((4-methoxyphenyl)sulfonyl)piperidin-3-yl)phenyl)-N,N-dimethylpyrimidin-2-amine], the IC50 amounted to 672 ± 118 nM.
Take `O=C(c1ccc(OCC(F)(F)F)nc1)N1CCCC(c2ccccc2-c2ccc(F)nc2)C1` (stereo not drawn) [Compound 15, (3-(2-(6-fluoropyridin-3-yl)phenyl)piperidin-1-yl)(6-(2,2,2-trifluoroethoxy)pyridin-3-yl)methanone]: the IC50 amounted to 954 ± 153 nM.

In a further experiment the target is hNav1.7 (Homo sapiens (Human), UniProt Q15858). The experiment can be described thus: Electrophysiology (EP) whole-cell patch clamp assay, hNav1.7 expressing HEK-293 cells. The format is cell-based. Conditions: affinity for inactivated channels; read-out: Nav1.7 Activity EP assay Ki. In general terms: Patch clamp records ionic current or voltage across a cell membrane.
Sequence of hNav1.7 (Q15858 other isoform, or with tags, fused parts or gaps): as above
On to `COc1ncc(-c2ccccc2C2CCCN(C(=O)c3ccc(OCC(F)(F)F)cc3)C2)cn1` (stereo not drawn) [Compound 6, (3-(2-(2-methoxypyrimidin-5-yl)phenyl)piperidin-1-yl)(4-(2,2,2-trifluoroethoxy)phenyl) methanone], for which the Ki came to 511 ± 100 nM.
As to `COc1ncc(-c2ccccc2C2CCCN(C(=O)c3ccc(OCC(F)(F)F)nc3)C2)cn1` (stereo not drawn) [Compound 13, (3-(2-(2-methoxypyrimidin-5-yl)phenyl)piperidin-1-yl)(6-(2,2,2-trifluoroethoxy)pyridin-3-yl)methanone], the Ki was 2100 ± 384 nM.

The experiment is the same for the next values; noted with them: resting block dissociation constant; read-out: Nav1.7 Activity EP assay Kr.
`COc1ncc(-c2ccccc2C2CCCN(C(=O)c3ccc(OCC(F)(F)F)cc3)C2)cn1` (stereo not drawn) [Compound 6, (3-(2-(2-methoxypyrimidin-5-yl)phenyl)piperidin-1-yl)(4-(2,2,2-trifluoroethoxy)phenyl) methanone]: the Kd was found to be 97.9 ± 9.3 µM.
As for `COc1ncc(-c2ccccc2C2CCCN(C(=O)c3ccc(OCC(F)(F)F)nc3)C2)cn1` (stereo not drawn) [Compound 13, (3-(2-(2-methoxypyrimidin-5-yl)phenyl)piperidin-1-yl)(6-(2,2,2-trifluoroethoxy)pyridin-3-yl)methanone], the Kd is 115 ± 22.3 µM.

Source of the values: US9359330B2, “Substituted piperidines as sodium channel blockers” (Purdue Pharma L.P., priority 2013, dated 2016).
